In patent publication US8227601B2, “Diaryl-purines, azapurines and -deazapurines as non-nucleoside reverse transcriptase inhibitor for treatment of HIV” (priority 2005, dated 2012):
pEC50: −log10 of the molar value. Read-outs that look alike come from different tables or passages of the source.

Tests used:
Test in all cases: microbe, parasite or virus in culture
Assay type in all cases: cell-based, human immunodeficiency virus type 1 (HIV-1)
wild type HIV-1 = conditions: for EC50: Human immunodeficiency virus 1, Hela-JC53, read-out: EC50 WT (nM)
HIV-1 Y181C = conditions: for EC50: Human immunodeficiency virus 1, read-out: EC50 Y181C (nM), Y181C mutant
HIV-1 L1001-K103N = conditions: for EC50: Human immunodeficiency virus 1, read-out: EC50 L1001-K103N (nM), L1001-K103N mutant
HIV-1 Y188L = conditions: for EC50: Human immunodeficiency virus 1, read-out: EC50 Y188L (nM)

SMILES	EC50 (wild type HIV-1)	EC50 (HIV-1 Y181C)	EC50 (HIV-1 L1001-K103N)	EC50 (HIV-1 Y188L)	pEC50 (wild type HIV-1; read-out: EC50 WT, wild-type HIV-1)	pEC50 (HIV-1 Y181C; read-out: EC50 Y181C, Y181C mutant)	pEC50 (HIV-1 L1001-K103N; read-out: EC50 L1001-K103N, L1001-K103N mutant)	pEC50 (HIV-1 Y188L; read-out: EC50 Y188L, Y188L mutant)
Cc1cc(C)c(Oc2nc(Nc3ccc(C#N)cc3)nc3[nH]ccc23)c(C)c1 [Cpd 1]	< 10 nM	10 to 100 nM	10 to 100 nM	10 to 100 nM	–	–	–	–
Cc1cc(C)c(Sc2nc(Nc3ccc(C#N)cc3)nc3[nH]ccc23)c(C)c1 [Cpd 2]	< 10 nM	10 to 100 nM	> 100 nM	10 to 100 nM	–	–	–	–
Cc1cc(C#N)cc(C)c1Oc1nc(Nc2ccc(C#N)cc2)nc2[nH]ccc12 [Cpd 3]	< 10 nM	< 10 nM	< 10 nM	< 10 nM	–	–	–	–
Cc1cc(C)c(Nc2nc(Nc3ccc(C#N)cc3)nc3[nH]ccc23)c(C)c1 [Cpd 4]	< 10 nM	10 to 100 nM	10 to 100 nM	10 to 100 nM	–	–	–	–
Cc1cc(C)c(Oc2nc(Nc3ccc(C#N)cc3)nc3[nH]cnc23)c(C)c1 [Cpd 5]	< 10 nM	< 10 nM	< 10 nM	< 10 nM	–	–	–	–
Cc1cc(Br)cc(C)c1Oc1nc(Nc2ccc(C#N)cc2)nc2[nH]ccc12 [Cpd 6]	< 10 nM	10 to 100 nM	10 to 100 nM	10 to 100 nM	–	–	–	–
Cc1cc(C)c(Oc2nc(Nc3ccc(C#N)cc3)nc3[nH]ncc23)c(C)c1 [Cpd 7]	< 10 nM	< 10 nM	10 to 100 nM	10 to 100 nM	–	–	–	–
Cc1cc(Br)cc(Cl)c1Oc1nc(Nc2ccc(C#N)cc2)nc2c1ccn2Cc1ccccc1 [Cpd 8]	10 to 100 nM	> 100 nM	> 100 nM	> 100 nM	–	–	–	–
Cc1ccc(Oc2nc(Nc3ccc(C#N)cc3)nc3[nH]ccc23)c(C)c1 [Cpd 9]	< 10 nM	> 100 nM	> 100 nM	> 100 nM	–	–	–	–
Cc1cc(Br)cc(Cl)c1Oc1nc(Nc2ccc(C#N)cc2)nc2[nH]ccc12 [Cpd 10]	< 10 nM	10 to 100 nM	10 to 100 nM	10 to 100 nM	–	–	–	–
Cc1cc(Cl)cc(C)c1Oc1nc(Nc2ccc(C#N)cc2)nc2[nH]ccc12 [Cpd 11]	< 10 nM	10 to 100 nM	10 to 100 nM	< 10 nM	–	–	–	–
Cc1cc(C)c(Oc2nc(Nc3ccc(S(N)(=O)=O)cc3)nc3[nH]cnc23)c(C)c1 [Cpd 12]	10 to 100 nM	> 100 nM	> 100 nM	> 100 nM	–	–	–	–
Cc1cc(C#N)cc(C)c1Oc1nc(Nc2ccc(C#N)cc2)nc2c1ccn2C [Cpd 13]	< 10 nM	< 10 nM	< 10 nM	< 10 nM	–	–	–	–
COC(=O)c1ccc(Nc2nc(Oc3c(C)cc(C)cc3C)c3nc[nH]c3n2)cc1 [Cpd 14]	< 10 nM	> 100 nM	> 100 nM	> 100 nM	–	–	–	–
Cc1cc(C)c(Oc2nc(Nc3ccc(C(N)=O)cc3)nc3[nH]cnc23)c(C)c1 [Cpd 15]	10 to 100 nM	> 100 nM	> 100 nM	> 100 nM	–	–	–	–
Cc1cc(C)c(Oc2nc(Nc3ccc(C(=O)O)cc3)nc3[nH]cnc23)c(C)c1 [Cpd 16]	> 100 nM	> 100 nM	> 100 nM	> 100 nM	–	–	–	–
Cc1cc(C#N)cc(C)c1Oc1nc(Nc2ccc(C#N)cc2)nc2[nH]ncc12 [Cpd 17]	< 10 nM	10 to 100 nM	10 to 100 nM	< 10 nM	–	–	–	–
Cc1cc(C)c(Oc2nc(Nc3ccc(C#N)cc3)nc3[nH]cc(Cl)c23)c(C)c1 [Cpd 18]	10 to 100 nM	> 100 nM	> 100 nM	> 100 nM	–	–	–	–
Cc1cc(C2CC2)cc(C)c1Oc1nc(Nc2ccc(C#N)cc2)nc2[nH]cnc12 [Cpd 19]	< 10 nM	< 10 nM	10 to 100 nM	< 10 nM	–	–	–	–
Cc1ccc(Nc2nc(Nc3ccc(C#N)cc3)nc3[nH]cnc23)c2ccccc12 [Cpd 20]	< 10 nM	10 to 100 nM	> 100 nM	> 100 nM	–	–	–	–
N#Cc1ccc(Nc2nc(Oc3ccc(Cl)c4ccccc34)c3nc[nH]c3n2)cc1 [Cpd 21]	< 10 nM	10 to 100 nM	> 100 nM	10 to 100 nM	–	–	–	–
N#Cc1ccc(Nc2nc(Nc3ccc(C4CC4)c4ccccc34)c3nc[nH]c3n2)cc1 [Cpd 22]	< 10 nM	> 100 nM	> 100 nM	> 100 nM	–	–	–	–
Cc1cc(C)c(Nc2nc(Nc3ccc(C#N)cc3)nc3[nH]cnc23)c(C)c1 [Cpd 23]	< 10 nM	< 10 nM	10 to 100 nM	< 10 nM	–	–	–	–
N#Cc1ccc(Nc2nc(Nc3ccc(C#N)cc3)c3nc[nH]c3n2)cc1 [Cpd 24]	10 to 100 nM	> 100 nM	> 100 nM	> 100 nM	–	–	–	–
Cc1cc(C#N)cc(C)c1Oc1nc(Nc2ccc(C#N)cc2)nc2[nH]cnc12 [Cpd 25]	< 10 nM	< 10 nM	10 to 100 nM	< 10 nM	–	–	–	–

SMILES	EC50 (wild type HIV-1)	EC50 (HIV-1 Y181C)	EC50 (HIV-1 L1001-K103N)	EC50 (HIV-1 Y188L)	pEC50 (wild type HIV-1; read-out: EC50 WT, wild-type HIV-1)	pEC50 (HIV-1 Y181C; read-out: EC50 Y181C, Y181C mutant)	pEC50 (HIV-1 L1001-K103N; read-out: EC50 L1001-K103N, L1001-K103N mutant)	pEC50 (HIV-1 Y188L; read-out: EC50 Y188L, Y188L mutant)
CCn1ccc2c(Oc3c(C)cc(C#N)cc3C)nc(Nc3ccc(C#N)cc3)nc21 [Cpd 26]	< 10 nM	10 to 100 nM	> 100 nM	10 to 100 nM	–	–	–	–
Cc1cc(C2CC2)cc(Cl)c1Nc1nc(Nc2ccc(C#N)cc2)nc2[nH]cnc12 [Cpd 27]	< 10 nM	10 to 100 nM	10 to 100 nM	10 to 100 nM	–	–	–	–
Cc1cc(C2CC2)cc(C)c1Nc1nc(Nc2ccc(C#N)cc2)nc2[nH]cnc12 [Cpd 28]	< 10 nM	< 10 nM	10 to 100 nM	10 to 100 nM	–	–	–	–
N#Cc1ccc(Nc2nc(Nc3ccc4c(c3)CCC4)c3nc[nH]c3n2)cc1 [Cpd 29]	< 10 nM	> 100 nM	> 100 nM	> 100 nM	–	–	–	–
Cc1ccc2cccc(Nc3nc(Nc4ccc(C#N)cc4)nc4[nH]cnc34)c2n1 [Cpd 30]	> 100 nM	> 100 nM	> 100 nM	> 100 nM	–	–	–	–
Cc1cc(C)c(Oc2nc(Nc3ccc(C#N)cc3)nc3[nH]cnc23)c(C)c1 [Cpd 31]	–	–	–	–	> 8.00	7.00 to 8.00	7.00 to 8.00	> 8.00
Cc1ccc2ccccc2c1Nc1nc(Nc2ccc(C#N)cc2)nc2[nH]cnc12 [Cpd 32]	< 10 nM	10 to 100 nM	> 100 nM	> 100 nM	–	–	–	–
Cc1cc(C2CC2)cc(C)c1Oc1nc(Nc2ccc(C#N)cc2)nc2[nH]ccc12 [Cpd 33]	< 10 nM	10 to 100 nM	10 to 100 nM	10 to 100 nM	–	–	–	–
Cc1cc(C)c(Oc2nc(Nc3ccc(F)cc3)nc3[nH]cnc23)c(C)c1 [Cpd 34]	< 10 nM	< 10 nM	10 to 100 nM	10 to 100 nM	–	–	–	–
COc1ccc(Nc2nc(Oc3c(C)cc(C)cc3C)c3nc[nH]c3n2)cc1 [Cpd 35]	< 10 nM	10 to 100 nM	> 100 nM	> 100 nM	–	–	–	–
Cc1cc(C)c(Oc2nc(Nc3cccc(C#N)c3)nc3[nH]cnc23)c(C)c1 [Cpd 36]	< 10 nM	10 to 100 nM	> 100 nM	> 100 nM	–	–	–	–
Cc1cc(C)c(Oc2nc(Nc3ccc(C#N)cc3)nc3cc[nH]c23)c(C)c1 [Cpd 37]	< 10 nM	< 10 nM	< 10 nM	< 10 nM	–	–	–	–
Cc1cc(C)c(Oc2nc(Nc3ccc(C(F)(F)F)cc3)nc3[nH]cnc23)c(C)c1 [Cpd 38]	10 to 100 nM	> 100 nM	> 100 nM	> 100 nM	–	–	–	–
Cc1cc(C)c(Oc2nc(Nc3cccc(C(F)(F)F)c3)nc3[nH]cnc23)c(C)c1 [Cpd 39]	> 100 nM	> 100 nM	> 100 nM	> 100 nM	–	–	–	–
Cc1cc(C)c(Oc2nc(Nc3ccc(C#N)c(C(F)(F)F)c3)nc3[nH]cnc23)c(C)c1 [Cpd 40]	10 to 100 nM	10 to 100 nM	10 to 100 nM	> 100 nM	–	–	–	–
Cc1cc(C#N)cc(C)c1Oc1nc(Nc2ccc(C#N)cc2)nc2ccn(Cc3ccccc3)c12 [Cpd 41]	< 10 nM	< 10 nM	10 to 100 nM	10 to 100 nM	–	–	–	–
Cc1cc(C#N)cc(C)c1Oc1nc(Nc2ccc(C#N)cc2)nc2cc[nH]c12 [Cpd 42]	< 10 nM	< 10 nM	< 10 nM	< 10 nM	–	–	–	–
CCCc1nn(C)c2c(Oc3c(C)cc(C)cc3C)nc(Nc3ccc(C#N)cc3)nc12 [Cpd 43]	10 to 100 nM	10 to 100 nM	10 to 100 nM	> 100 nM	–	–	–	–
Cc1cc(C)c(Oc2nc(Nc3ccc(C4CC4)cc3)nc3[nH]cnc23)c(C)c1 [Cpd 44]	10 to 100 nM	> 100 nM	> 100 nM	> 100 nM	–	–	–	–
Cc1cc(C)c(Oc2nc(Nc3ccc(C#N)cc3)nc3c2ncn3C)c(C)c1 [Cpd 45]	< 10 nM	< 10 nM	10 to 100 nM	< 10 nM	–	–	–	–
CCN(c1ccc(C#N)cc1)c1nc(Oc2c(C)cc(C#N)cc2C)c2c(ccn2CC)n1 [Cpd 46]	> 100 nM	> 100 nM	> 100 nM	> 100 nM	–	–	–	–
Cc1cc(C2CC2)cc(C)c1Oc1nc(Nc2ccc(C#N)cc2)nc2ccn(Cc3ccccc3)c12 [Cpd 47]	10 to 100 nM	10 to 100 nM	> 100 nM	> 100 nM	–	–	–	–
Cc1cc(C)c(Sc2nc(Nc3ccc(C#N)cc3)nc3ccn(Cc4ccccc4)c23)c(C)c1 [Cpd 48]	10 to 100 nM	10 to 100 nM	> 100 nM	> 100 nM	–	–	–	–
Cc1cc(C#N)cc(C)c1Oc1nc(Nc2ccc(C#N)cc2)nc2c(Cl)c[nH]c12 [Cpd 49]	< 10 nM	< 10 nM	< 10 nM	< 10 nM	–	–	–	–
COc1cc(C)cc(OC)c1Oc1nc(Nc2ccc(C#N)cc2)nc2[nH]cnc12 [Cpd 50]	< 10 nM	< 10 nM	> 100 nM	10 to 100 nM	–	–	–	–
